Legend:
[1] = target: T1, Cyclin-C (Homo sapiens, UniProt P24863); experiment: Inhibition of recombinant full-length human His-tagged CDK8/cyclinC expressed in baculovirus expression system by Lantha screen assay
T1 sequence (P24863 whole entry): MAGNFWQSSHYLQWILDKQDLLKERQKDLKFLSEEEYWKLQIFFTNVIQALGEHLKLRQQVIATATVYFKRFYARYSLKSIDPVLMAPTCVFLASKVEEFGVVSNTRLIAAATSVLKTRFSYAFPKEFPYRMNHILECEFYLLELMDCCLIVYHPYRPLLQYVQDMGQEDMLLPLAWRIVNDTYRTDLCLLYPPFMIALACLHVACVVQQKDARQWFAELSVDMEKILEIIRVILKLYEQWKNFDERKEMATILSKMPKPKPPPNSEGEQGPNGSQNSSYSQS

[2] = target: T1, Cyclin-C; experiment: Displacement of Kinase tracer 236 from recombinant full-length human N-terminal GST-fused CDK8 (1 to 464 residues)/cyclin C (1 to 283 residues) expressed in baculovirus expression system after 60 mins by TR-FRET assay

IC50 [1] | IC50 [2] | Compound
0.5 µM | – | CC1CCc2nc(N)c(C#N)c(-c3cccnc3)c2C1 (configuration not stated) [2-azanyl-6-methyl-4-pyridin-3-yl-5,6,7,8-tetrahydroquinoline-3-carbonitrile]
– | 0.0016 µM | Cc1ncccc1Oc1sc(C(N)=O)c2c1-c1c(cnn1C)CC2

Reference: BindingDB's records for doi:10.1016/j.ejmech.2018.11.076 (Shaoxing University, 2019)
